Species: Rattus norvegicus
Experiment: Open TG-GATES - Regimen: Daily Repeat
Type: toxicity, organism-based, Sprague-Dawley
Design: regimen Daily Repeat, gender Male, age 6 weeks
Details: in vivo, po, 50 mg/kg, route gavage, dose level Middle; for APTT / Bas / Eos / Fbg / Hb / Ht / Lym / MCH / MCHC / MCV / Mono / Neu / PT / Plat / RBC / Ret / WBC: tissue Blood; for KIDNEY_L / KIDNEY_R / KIDNEY_TOTAL: tissue Kidney; for LIVER: tissue Liver; for ALP / ALT / AST / BUN / CRE / Ca / DBIL / GLC / IP / K / LDH / Na / PL / RALB / TBIL / TC / TP / gamma-GTP / TG: tissue Plasma

What does the source list for Oc1ncnc2[nH]ncc12 [ALLOPURINOL]?
APTT (72 h, time 3 day): 16.2 s; Bas (72 h, time 3 day): 0%; Eos (72 h, time 3 day): 1.4%; Fbg (72 h, time 3 day): 261.6 mg/dL; Hb (72 h, time 3 day): 13.5 g/dL; Ht (72 h, time 3 day): 40%; Lym (72 h, time 3 day): 75%; MCH (72 h, time 3 day): 21.9 pg; MCHC (72 h, time 3 day): 33.7%; MCV (72 h, time 3 day): 64.9 fL; Mono (72 h, time 3 day): 9.2%; Neu (72 h, time 3 day): 14.4%; PT (72 h, time 3 day): 12.3 s; Plat (72 h, time 3 day): 108.7 x10_4/uL; RBC (72 h, time 3 day): 618 x10_4/ul; Ret (72 h, time 3 day): 6.3%; WBC (72 h, time 3 day): 139.1 x10_2/uL; KIDNEY_L (72 h, time 3 day): 1.2 g; KIDNEY_R (72 h, time 3 day): 1.2 g; KIDNEY_TOTAL (72 h, time 3 day): 2.3 g; LIVER (72 h, time 3 day): 11.5 g; ALP (72 h, time 3 day): 918 IU/L; ALT (72 h, time 3 day): 33.8 IU/L; AST (72 h, time 3 day): 65.8 IU/L; BUN (72 h, time 3 day): 20.6 mg/dL; CRE (72 h, time 3 day): 0.5 mg/dL; Ca (72 h, time 3 day): 11.1 mg/dL; DBIL (72 h, time 3 day): 0.004 mg/dL; GLC (72 h, time 3 day): 194.4 mg/dL; IP (72 h, time 3 day): 7 mg/dL; K (72 h, time 3 day): 4.7 meq/L; LDH (72 h, time 3 day): 111.4 IU/L; Na (72 h, time 3 day): 138.2 meq/L; PL (72 h, time 3 day): 150 mg/dL; RALB (72 h, time 3 day): 3.9 g/dL; TBIL (72 h, time 3 day): 0.3 mg/dL; TC (72 h, time 3 day): 79.4 mg/dL; TP (72 h, time 3 day): 6.1 g/dL; gamma-GTP (72 h, time 3 day): 2 IU/L; TERMINAL_BW ([…], time 7 day): 270.7 g; TERMINAL_BW ([…], time 14 day): 308.6 g; TERMINAL_BW ([…], time 28 day): 380.1 g; APTT ([…], time 7 day): 16.4 s; Bas ([…], time 7 day): 0%; Eos ([…], time 7 day): 0.4%; Fbg ([…], time 7 day): 246 mg/dL; Hb ([…], time 7 day): 14.2 g/dL; Ht ([…], time 7 day): 42.3%; Lym ([…], time 7 day): 86.4%; MCH ([…], time 7 day): 21.4 pg; MCHC ([…], time 7 day): 33.6%; MCV ([…], time 7 day): 63.9 fL; Mono ([…], time 7 day): 3.8%; Neu ([…], time 7 day): 9.4%; PT ([…], time 7 day): 11.8 s; Plat ([…], time 7 day): 120 x10_4/uL; RBC ([…], time 7 day): 661.2 x10_4/ul; Ret ([…], time 7 day): 5.3%; WBC ([…], time 7 day): 129.4 x10_2/uL; APTT ([…], time 14 day): 16.5 s; Bas ([…], time 14 day): 0%; Eos ([…], time 14 day): 0.6%; Fbg ([…], time 14 day): 232.2 mg/dL; Hb ([…], time 14 day): 14.9 g/dL; Ht ([…], time 14 day): 44.6%; Lym ([…], time 14 day): 84%; MCH ([…], time 14 day): 20.8 pg; MCHC ([…], time 14 day): 33.4%; MCV ([…], time 14 day): 62.2 fL; Mono ([…], time 14 day): 3.6%; Neu ([…], time 14 day): 12.2%; PT ([…], time 14 day): 11.9 s; Plat ([…], time 14 day): 111.6 x10_4/uL; RBC ([…], time 14 day): 716 x10_4/ul; Ret ([…], time 14 day): 4.2%; WBC ([…], time 14 day): 114 x10_2/uL; APTT ([…], time 28 day): 16.8 s; Bas ([…], time 28 day): 0%; Eos ([…], time 28 day): 1%; Fbg ([…], time 28 day): 225.6 mg/dL; Hb ([…], time 28 day): 15.2 g/dL; Ht ([…], time 28 day): 45%; Lym ([…], time 28 day): 78.8%; MCH ([…], time 28 day): 19.8 pg; MCHC ([…], time 28 day): 33.8%; MCV ([…], time 28 day): 58.5 fL; Mono ([…], time 28 day): 4.8%; Neu ([…], time 28 day): 15.6%; PT ([…], time 28 day): 12.1 s; Plat ([…], time 28 day): 101.2 x10_4/uL; RBC ([…], time 28 day): 770.4 x10_4/ul; Ret ([…], time 28 day): 2.9%; WBC ([…], time 28 day): 128.2 x10_2/uL; KIDNEY_L ([…], time 7 day): 1.2 g; KIDNEY_R ([…], time 7 day): 1.2 g; KIDNEY_TOTAL ([…], time 7 day): 2.4 g; KIDNEY_L ([…], time 14 day): 1.3 g; KIDNEY_R ([…], time 14 day): 1.3 g; KIDNEY_TOTAL ([…], time 14 day): 2.5 g; KIDNEY_L ([…], time 28 day): 1.5 g; KIDNEY_R ([…], time 28 day): 1.5 g; KIDNEY_TOTAL ([…], time 28 day): 3.1 g; LIVER ([…], time 7 day): 13.3 g; LIVER ([…], time 14 day): 14 g; LIVER ([…], time 28 day): 15.1 g; ALP ([…], time 7 day): 917.6 IU/L; ALT ([…], time 7 day): 33.4 IU/L; AST ([…], time 7 day): 64 IU/L; BUN ([…], time 7 day): 20.2 mg/dL; CRE ([…], time 7 day): 0.5 mg/dL; Ca ([…], time 7 day): 11.4 mg/dL; DBIL ([…], time 7 day): 0.034 mg/dL; GLC ([…], time 7 day): 207.2 mg/dL; IP ([…], time 7 day): 7.6 mg/dL; K ([…], time 7 day): 4.3 meq/L; LDH ([…], time 7 day): 87 IU/L; Na ([…], time 7 day): 140.2 meq/L; PL ([…], time 7 day): 158.2 mg/dL; RALB ([…], time 7 day): 3.9 g/dL; TBIL ([…], time 7 day): 0.3 mg/dL; TC ([…], time 7 day): 74.4 mg/dL; TG ([…], time 7 day): 144.4 mg/dL; TP ([…], time 7 day): 6.1 g/dL; gamma-GTP ([…], time 7 day): 1.2 IU/L; ALP ([…], time 14 day): 645.2 IU/L; ALT ([…], time 14 day): 29.8 IU/L; AST ([…], time 14 day): 63 IU/L; BUN ([…], time 14 day): 20.2 mg/dL; CRE ([…], time 14 day): 0.6 mg/dL; DBIL ([…], time 14 day): 0.002 mg/dL; GLC ([…], time 14 day): 200 mg/dL; IP ([…], time 14 day): 7.5 mg/dL; K ([…], time 14 day): 4.5 meq/L; LDH ([…], time 14 day): 71.2 IU/L; Na ([…], time 14 day): 139.6 meq/L; PL ([…], time 14 day): 147.4 mg/dL; RALB ([…], time 14 day): 3.8 g/dL; TBIL ([…], time 14 day): 0.3 mg/dL; TC ([…], time 14 day): 65.8 mg/dL; TG ([…], time 14 day): 131.2 mg/dL; TP ([…], time 14 day): 6.2 g/dL; gamma-GTP ([…], time 14 day): 1.6 IU/L; ALP ([…], time 28 day): 574.8 IU/L; ALT ([…], time 28 day): 29.2 IU/L; AST ([…], time 28 day): 60.6 IU/L; BUN ([…], time 28 day): 22 mg/dL; CRE ([…], time 28 day): 0.6 mg/dL; DBIL ([…], time 28 day): 0.014 mg/dL; GLC ([…], time 28 day): 187.4 mg/dL; IP ([…], time 28 day): 6.3 mg/dL; K ([…], time 28 day): 4.6 meq/L; LDH ([…], time 28 day): 63.6 IU/L; Na ([…], time 28 day): 139.4 meq/L; PL ([…], time 28 day): 145.8 mg/dL; RALB ([…], time 28 day): 4 g/dL; TBIL ([…], time 28 day): 0.3 mg/dL; TC ([…], time 28 day): 66 mg/dL; TG ([…], time 28 day): 147 mg/dL; TP ([…], time 28 day): 6.3 g/dL

Reference: ChEMBL document CHEMBL3885861, “Open TG-GATES”
